Source: patent US20070244138A1, “Mercaptoimidazoles as Ccr2 Receptor Antagonists” (JANSSEN PHARMACEUTICA N.V., priority 2004, published 2007)
pIC50, pKi: −log10 of the molar value.

What was measured:
CCR2 receptor = biological target: T1, CCR2 receptor (Homo sapiens, UniProt P41597); experiment: Inhibition of MCP-1 induced Ca-flux in human THP-1 cells; format: cell-based; conditions: -log IC50 (molar), inhibition of specific MCP-1 induced Ca2+ flux, 10^-7 M hMCP-1, 20 min pre-incubation, FLIPR
T1 construct: host or cells: THP-1 (human monocytic cell line)
T1 sequence (P41597 1-360 isoform P41597-2): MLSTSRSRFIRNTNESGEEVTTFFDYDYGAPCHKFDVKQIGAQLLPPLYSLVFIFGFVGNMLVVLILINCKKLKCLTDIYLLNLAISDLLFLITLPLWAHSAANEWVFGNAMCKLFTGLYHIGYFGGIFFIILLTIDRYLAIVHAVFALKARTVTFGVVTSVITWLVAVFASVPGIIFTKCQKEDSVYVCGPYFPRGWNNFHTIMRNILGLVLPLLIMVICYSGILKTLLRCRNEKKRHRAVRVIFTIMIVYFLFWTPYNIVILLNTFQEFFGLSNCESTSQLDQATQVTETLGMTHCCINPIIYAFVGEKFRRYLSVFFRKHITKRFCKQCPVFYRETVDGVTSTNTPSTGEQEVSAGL
Description: D. Pharmacological Example Inhibition of MCP-1 Induced Ca-Flux in Human THP-1 Cells
MCP-1 binding to the CCR2 receptor induces a rapid and transient intracellular release of Ca^2+ (secondary messenger) in several cell lines (Charo et al, PNAS 1994). Free Ca^2+ levels can be measured using a Ca^2+ sensitive dye. When the CCR2 receptor is blocked with a CCR2 receptor antagonist, the MCP-1 induced release of Ca^2+ is inhibited.
Human THP-1 cells (monocytic cell line, ATCC TIB-202) were cultured in RPMI 1640 medium supplemented with 10% fetal calf serum (FCS), 1% L-Glutamine, penicillin (50 U/ml) and streptomycin (50 μg/ml) (all GIBCO BRL, Gent). After centrifugation, cells were loaded for 30 minutes with the Ca^2+ sensitive fluorescent dye Fluo-3 AM (Molecular Probes, Leiden, Netherlands) (2 million cells/ml in RPMI medium containing 4 μM Fluo-3 AM, 20 mM HEPES, 0.1% Bovine Serum Albumin (BSA) and 5 mM probenecid). Excess dye was removed by 3-fold washing with buffer (5 mM HEPES, 140 mM NaCl, 1 mM MgCl2, 5 mN KCl, 10 mM glucose, 2.5 mM probenecid, 1.25 mM CaCl2, 0.1% BSA; all further incubations were done in this buffer). Cells were plated at a density of 150 000 cells/well in dark-wall 96-well plates (Costar, Cambridge, Mass.) and sedimented by centrifugation (1 minute). The cells were pre-incubated for 20 minutes with test compound Then, 10^−7 M hMCP-1 (Bachem, Bubendorf, Switserland) was added. Changes in intracellular free Ca^2+ concentration were measured using the Fluorescent Imaging Plate Reader (FLIPR, Molecular Devices, Munchen, Germany). Fluorescence was recorded every second from 10 seconds before the addition of the MCP-1 till 2 minutes after the addition (first minute: 60 records with 1 second intervals, second minute 20 records with 3 second intervals). The maximal fluorescence obtained during this time frame was used for further calculations.
Table 4 reports pIC50 values obtained in the above-described test for compounds of formula (I). pIC50 defines −log IC5o wherein IC50 is the molar concentration of the test compound which inhibits 50% of specific MCP-1 induced Ca^2+ flux.

CCR2B = biological target: T2, CCR2B (Homo sapiens, UniProt P41597); experiment: 125I-MCP-1 radioligand binding assay, membranes from CCR2B-transfected CHO cells; conditions: competition with 0.15 nM 125I-MCP-1, 90 minutes at 25° C.; Cheng-Prusoff
T2 construct: expressed in transfected cells; host or cells: CHO cells (membrane preparation)
T2 sequence (P41597 1-360 isoform P41597-2): T1 sequence (P41597 1-360 isoform P41597-2)
Description: Radioligand Binding Assay.
^125I-MCP binding assays performed in 96-well plates with 40 μg of protein per well. Compounds were dissolved and diluted in DMSO to 100× dilutions. A 10× concentration range of compounds was prepared in binding buffer (10% DSMO). Competition binding assay contained the following components in a total volume of 250 μl of the appropriate compound dilution (final concentration of 1% DMSO), 200 μl membranes from CCR2B-transfected CHO cells dissolved in binding buffer and 25 μl ^125I-MCP-1(Bolton and Hunter labeled, Amersham, specific activity=2000 Ci/mmol, 0.15 nM final). Binding buffer was composed of 25 mM HEPES, 5 mM MgCl2, 1 mM CaCl2, 0.5% protease-free bovine serum albumin, pH 7.4. After 90 minutes incubation at 25° C., membranes were harvested on GF/B filters -presoaked in 0.5% polyethylenimene, followeded by washing with buffer containing 25 mM HEPES, 5 mM MgCl2, 1 mM CaCl2, […], pH 7.4. Filter bound radioactivity was determined by liquid scintillation counting. EC50 values (μM) and Ki values (μM) were calculated. […] EC50 values and Ki values were calculated using non-linear regression in Graphpad Prism. […]

| pIC50 (CCR2 receptor) | pKi (CCR2B) | melting point | Compound |
| --- | --- | --- | --- |
| 6.70 |  |  | CCC(c1ccc(Cl)c(Cl)c1)n1c(-c2nc(C)no2)cnc1S (stereo not shown) [Compound 5] |
| 6.66 |  |  | CCC(c1ccc(C(F)(F)F)c(F)c1)n1c(-c2nc(C)no2)c[nH]c1=S (stereo not shown) [Compound 26] |
| 7.46 |  |  | CCC(c1ccc(Cl)c(Cl)c1)n1c(-c2ccnc(NCCO)n2)c[nH]c1=S (stereo not shown) [Compound 21] |
| 6.08 |  |  | CCC(c1ccc(Cl)c(Cl)c1)n1c(-c2ccnc(C)n2)c[nH]c1=S (stereo not shown) [Compound 19] |
| 7.45 | 6.77 |  | CCC(c1ccc(Cl)c(Cl)c1)n1c(-c2ccnc(N)n2)c[nH]c1=S (stereo not shown) [Compound 1] |
| 7.48 |  |  | CCC(c1ccc(Cl)c(Cl)c1)n1c(-c2nnc(N)o2)cnc1S (stereo not shown) [Compound 9] |
| 6.20 |  |  | CCC(c1ccc(Cl)c(Cl)c1)n1c(-c2ccnc(N3CCNCC3)n2)c[nH]c1=S (stereo not shown) [Compound 24] |
| 6.40 |  |  | CCC(c1ccc(Cl)c(Cl)c1)n1c(-c2ncn[nH]2)c[nH]c1=S (stereo not shown) [Compound 12] |
|  |  | 97.8 to 97.9 °C | CCCC(c1ccc(F)c(F)c1)n1c(-c2nnc(C)o2)c(COC)[nH]c1=S (stereo not shown) [Compound 10] |
| 7.38 |  |  | CCC(c1ccc(Cl)c(Cl)c1)n1c(-c2ccnc(NC)n2)c[nH]c1=S (stereo not shown) [Compound 20] |
| 6.38 |  |  | CCC(c1ccc(Cl)c(Cl)c1)n1c(-c2nnc(C)o2)c[nH]c1=S (stereo not shown) [Compound 14] |
| 6.14 |  |  | CCC(c1ccc(Cl)c(Cl)c1)n1c(-c2cc[nH]n2)c[nH]c1=S (stereo not shown) [Compound 11] |
